Test results published in ChEMBL document CHEMBL1149977, “Synthesis of 1-(2-aminopropyl)benzimidazoles, structurally related to the TIBO derivative R82150, with activity against human immunodeficiency virus” (Bioorg Med Chem Lett, 1993).

Test system: CEM-SS
Experiment: Tested for the inhibition of HIV-1 in CEM-SS cells measured using Syncytial assay
Assay type: functional, cell-based
Details: Homo sapiens
`CC(C)=CCN1Cc2cc(Cl)cc3[nH]c(=S)n(c23)C[C@@H]1C` showed an IC50 of 0.055 µM. With `C=CCN(C)C(C)Cn1c(S)nc2ccccc21` (stereo not drawn) the IC50 was 23 µM. Work on `CC(C)=CCN1Cc2cccc3[nH]c(=S)n(c23)C[C@@H]1C` yielded an IC50 of 0.026 µM. In the case of `CC(C)=CCN(C)C(C)Cn1c(S)nc2ccccc21` (stereo not drawn), the IC50 is reported as 14 µM. `C=CCNC(C)Cn1c(S)nc2ccccc21` (stereo not drawn) showed an IC50 of 28 µM. In the case of `CC(Cn1c(S)nc2ccccc21)N(C)Cc1ccccc1` (stereo not drawn), the IC50 is reported as 20 µM. For `CC(C)=CCNC(C)Cn1c(S)nc2ccccc21` (stereo not drawn), the IC50 was 23 µM. Compound `CC(Cn1c(S)nc2ccccc21)NCc1ccccc1` (stereo not drawn) has an IC50 of 4.3 µM.

Test system: CEM-SS
Experiment: Tested for the cytotoxicity against CEM-SS cells (determined by the inhibition of [3H]-thymidine uptake)
Assay type: functional
Details: Homo sapiens
Compound `CC(C)=CCN1Cc2cc(Cl)cc3[nH]c(=S)n(c23)C[C@@H]1C` has a CC50 of 35 µM. In the case of `C=CCN(C)C(C)Cn1c(S)nc2ccccc21` (stereo not drawn), the CC50 is reported as > 100 µM. `CC(C)=CCN1Cc2cccc3[nH]c(=S)n(c23)C[C@@H]1C` showed a CC50 of 79 µM. For `CC(C)=CCN(C)C(C)Cn1c(S)nc2ccccc21` (stereo not drawn), the CC50 was > 100 µM. For `C=CCNC(C)Cn1c(S)nc2ccccc21` (stereo not drawn), the CC50 was > 100 µM. With `CC(Cn1c(S)nc2ccccc21)N(C)Cc1ccccc1` (stereo not drawn) the CC50 was 79 µM. Work on `CC(C)=CCNC(C)Cn1c(S)nc2ccccc21` (stereo not drawn) yielded a CC50 of 81 µM. `CC(Cn1c(S)nc2ccccc21)NCc1ccccc1` (stereo not drawn) gave a CC50 of 82 µM.

Target: Human immunodeficiency virus type 1 reverse transcriptase (Human immunodeficiency virus 1, UniProt Q72547)
Experiment: Tested for the inhibition of HIV-1 reverse transcriptase using a ribosomal RNA template
Details: not given
In the case of `CC(C)=CCN1Cc2cc(Cl)cc3[nH]c(=S)n(c23)C[C@@H]1C`, the IC50 is reported as 0.0155 µM.

Target: Human immunodeficiency virus type 1 reverse transcriptase (Human immunodeficiency virus 1) (UniProt Q72547)
Experiment: Tested for the inhibition of HIV-1 reverse transcriptase at a concentration of 10 ug/mL using a ribosomal RNA template
Details: not given
`CC(C)=CCN(C)C(C)Cn1c(S)nc2ccccc21` (stereo not drawn) showed an inhibition of 19%. With `C=CCNC(C)Cn1c(S)nc2ccccc21` (stereo not drawn) the inhibition was 4.5%. `CC(Cn1c(S)nc2ccccc21)N(C)Cc1ccccc1` (stereo not drawn) gave an inhibition of 13%. With `CC(C)=CCNC(C)Cn1c(S)nc2ccccc21` (stereo not drawn) the inhibition was 19%. With `CC(Cn1c(S)nc2ccccc21)NCc1ccccc1` (stereo not drawn) the inhibition was 17%.

Target: Human immunodeficiency virus type 1 reverse transcriptase (Human immunodeficiency virus 1) (UniProt Q72547)
Experiment: Tested for the inhibition of HIV-1 reverse transcriptase at a concentration of 100 ug/mL using a ribosomal RNA template
Details: not given
`CC(C)=CCN(C)C(C)Cn1c(S)nc2ccccc21` (stereo not drawn) gave an inhibition of 34%. Compound `C=CCNC(C)Cn1c(S)nc2ccccc21` (stereo not drawn) has an inhibition of 29%. For `CC(Cn1c(S)nc2ccccc21)N(C)Cc1ccccc1` (stereo not drawn), the inhibition was 31%. `CC(C)=CCNC(C)Cn1c(S)nc2ccccc21` (stereo not drawn) gave an inhibition of 46%. `CC(Cn1c(S)nc2ccccc21)NCc1ccccc1` (stereo not drawn) gave an inhibition of 36%.

Test system: not listed separately
Experiment: Selectivity index was determined by the ratio of CC50 to IC50
Assay type: functional
Details: not given
Work on `CC(Cn1c(S)nc2ccccc21)NCc1ccccc1` (stereo not drawn) yielded a Selectivity index of 19.
